Data reported in patent US20200268768A1, “CENICRIVIROC COMBINATION THERAPY FOR THE TREATMENT OF FIBROSIS” (Tobira Therapeutics, Inc., priority 2015, published 2020).
Entries after “also recorded” stand apart in the source; their conditions may differ.

What was measured:
[1] = CVC plasma exposures in clinical studies; format: in vivo, human; settings: same dosing conditions; Studies 652-1-111, 652-1-110, 652-2-202
[2] = system: adults with CCR5 tropic HIV-1; experiment: Study 202 post-hoc APRI and FIB-4 fibrosis index scores; format: in vivo, human
Procedure: APRI and FIB-4 scores were calculated. Change in score category from baseline (BL) to Weeks 24 and 48 was assessed in patients with non-missing data. Correlations between changes from BL in APRI and FIB-4 scores, and MCP-1 (CCR2 ligand) and sCD14 (inflammatory biomarker) levels were evaluated.

[3] = system: HIV-1 infected subjects; experiment: Study 202 safety and tolerability; format: in vivo, human; settings: 115 subjects, CVC 100 mg and 200 mg for up to 48 weeks
[4] = Tissue distribution in rodents; format: in vivo
Excerpt: Infiltration of various immune cell populations, resulting in inflammation, is a central pathogenic feature following acute- and chronic liver injury. Chronic liver inflammation leads to continuous hepatocyte injury which can lead to fibrosis, cirrhosis, ESLD, and HCC. Interactions between intra-hepatic immune cells lead to increased activation and migration of Kupffer cells and HSCs and are critical events for developing liver fibrosis. Additionally, there is increasing evidence of the role of CCR2 and CCR5 in the pathogenesis of liver fibrosis. These members of the C-C chemokine family are expressed by pro-fibrogenic cells including pro-inflammatory monocytes and macrophages, Kupffer cells, and HSCs. CCR2 signaling plays an important role in the pathogenesis of renal fibrosis through regulation of bone marrow-derived fibroblasts. CCR2- and CCR5-positive monocytes as well as CCR5-positive T lymphocytes are attracted by locally released MCP-1 and RANTES, and can contribute to chronic interstitial inflammation in the kidney. […] Disruption of the intestinal microbiota and its downstream effects on the gut-liver axis both play an important role in metabolic disorders such as obesity, non-alcoholic fatty liver disease (NAFLD) and non-alcoholic steatohepatitis (NASH).

[5] = system: thioacetamide (TAA)-induced hepatic fibrosis; experiment: Rat model of thioacetamide-induced liver fibrosis and cirrhosis; format: in vivo, Sprague-Dawley rats; settings: for Reduction of ca-SMA / Reduction of collagen type 1 protein levels / Reduction of fibrosis by collagen morphometry: first 8 weeks
Procedure: Fibrosis was induced in male Sprague-Dawley rats by intraperitoneal administration of TAA 150 mg/kg 3 times/week for 8 weeks. […] Biochemical, gene expression and histologic evaluations of the liver were conducted.

[6] = Week 24, CVC pooled 100 and 200 mg, or EFV
[7] = Week 48, CVC pooled 100 and 200 mg, or EFV
[8] = Group 1a: CVC 30 mg/kg/day concurrently with TAA
[9] = Group 1b: CVC 100 mg/kg/day concurrently with TAA

CCCCOCCOc1ccc(-c2ccc3c(c2)C=C(C(=O)Nc2ccc([S@@+]([O-])Cc4cncn4CCC)cc2)CCCN3CC(C)C)cc1 [CVC, (S)-8-[4-(2-Butoxyethoxy)phenyl]-1-isobutyl-N-(4-{[(1-propyl-1H-imidazol-5-yl)methyl]sulfinyl}phenyl)-1,2,3,4-tetrahydro-1-benzazocine-5-carboxamide]
CVC plasma exposures [1]: higher in non-HIV infected healthy volunteer subjects as compared to HIV-infected subjects
Subjects in APRI category 0.5-1.5 [2, 6]: 7%
Subjects in APRI category <0.5 [2, 6]: 93%
Subjects in FIB-4 category 1.45-3.25 [2, 6]: 7%
Subjects in FIB-4 category <1.45 [2, 6]: 93%
Subjects with APRI decreased 1 category from baseline [2, 6]: 14%
Subjects with FIB-4 decreased 1 category from baseline [2, 6]: 13%
Subjects in APRI category 0.5-1.5 [2, 7]: 8%
Subjects in APRI category <0.5 [2, 7]: 91%
Subjects in APRI category >1.5 [2, 7]: 1%
Subjects in FIB-4 category 1.45-3.25 [2, 7]: 5%
Subjects in FIB-4 category <1.45 [2, 7]: 94%
Subjects in FIB-4 category >3.25 [2, 7]: 1%
Subjects with APRI decreased 1 category from baseline [2, 7]: 10%
Subjects with FIB-4 decreased 1 category from baseline [2, 7]: 14%
Subjects with improvements in APRI and FIB-4 scores over time ([2]; all CVC-treated subjects, pooled CVC 100 mg and 200 mg): ≥ 10%
Tolerability [3]: generally well tolerated; also recorded: effective and well tolerated
Tissue distribution [4]: high distribution in the liver, mesenteric lymph node, and intestine
Reduction of ca-SMA [5, 8]: 17%
Reduction of collagen type 1 protein levels [5, 8]: 30%
Reduction of fibrosis by collagen morphometry [5, 8]: 49%
Reduction of ca-SMA [5, 9]: 22%
Reduction of collagen type 1 protein levels [5, 9]: 12%
Reduction of fibrosis by collagen morphometry [5, 9]: 38%
Reduction in collagen ([5]; Group 2a: CVC 30 mg/kg/day during Weeks 4-8 (emerging fibrosis)): 36%
Effect on fibrogenic gene expression or fibrosis ([5]; Group 3: treatment Weeks 8-12, cirrhosis present): no significant effect of CVC on fibrogenic gene expression or fibrosis
